Assay results published in publication PMC3914206.

How the values were obtained:
[1] = biological target: T1, panel of 442 kinases (Homo sapiens, UniProt O00444); type: binding; settings: Compound Concentration 10 µM
T1 construct: purchased KINOMEscan
T1 sequence (O00444 1-970): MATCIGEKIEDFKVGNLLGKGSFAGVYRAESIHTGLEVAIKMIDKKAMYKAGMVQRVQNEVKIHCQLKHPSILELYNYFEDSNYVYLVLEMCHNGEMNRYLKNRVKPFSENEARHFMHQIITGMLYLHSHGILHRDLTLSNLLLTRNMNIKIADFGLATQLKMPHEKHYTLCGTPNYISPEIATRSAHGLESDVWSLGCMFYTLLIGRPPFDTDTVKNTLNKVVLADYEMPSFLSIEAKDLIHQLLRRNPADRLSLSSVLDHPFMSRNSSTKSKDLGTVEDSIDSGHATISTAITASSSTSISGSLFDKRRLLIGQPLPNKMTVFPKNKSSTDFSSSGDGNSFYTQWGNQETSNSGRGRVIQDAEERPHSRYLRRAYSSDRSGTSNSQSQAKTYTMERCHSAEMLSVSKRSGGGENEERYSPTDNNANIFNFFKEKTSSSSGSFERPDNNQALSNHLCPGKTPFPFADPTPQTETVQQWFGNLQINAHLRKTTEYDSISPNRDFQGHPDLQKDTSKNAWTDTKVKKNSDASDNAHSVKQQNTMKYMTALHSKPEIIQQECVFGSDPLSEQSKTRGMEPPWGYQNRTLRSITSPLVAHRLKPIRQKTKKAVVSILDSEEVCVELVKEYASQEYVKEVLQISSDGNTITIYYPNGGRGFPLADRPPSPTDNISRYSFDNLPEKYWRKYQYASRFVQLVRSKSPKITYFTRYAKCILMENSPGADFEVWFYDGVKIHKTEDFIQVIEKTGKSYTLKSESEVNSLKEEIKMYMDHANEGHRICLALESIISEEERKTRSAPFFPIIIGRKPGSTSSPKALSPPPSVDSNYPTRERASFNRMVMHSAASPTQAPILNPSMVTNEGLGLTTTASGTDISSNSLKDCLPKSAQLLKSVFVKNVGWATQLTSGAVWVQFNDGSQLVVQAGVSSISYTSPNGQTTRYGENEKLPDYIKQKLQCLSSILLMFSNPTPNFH
Text: (§1) We assessed the selectivity of members of this scaffold using the KINOMEscan methodology across a near comprehensive panel of 442 kinases [[18,27]].

[2] = biological target: T2, panel of 442 kinases (Homo sapiens, UniProt P15735); type: binding; settings: Compound Concentration 10 µM
T2 construct: purchased KINOMEscan
T2 sequence (P15735 1-406): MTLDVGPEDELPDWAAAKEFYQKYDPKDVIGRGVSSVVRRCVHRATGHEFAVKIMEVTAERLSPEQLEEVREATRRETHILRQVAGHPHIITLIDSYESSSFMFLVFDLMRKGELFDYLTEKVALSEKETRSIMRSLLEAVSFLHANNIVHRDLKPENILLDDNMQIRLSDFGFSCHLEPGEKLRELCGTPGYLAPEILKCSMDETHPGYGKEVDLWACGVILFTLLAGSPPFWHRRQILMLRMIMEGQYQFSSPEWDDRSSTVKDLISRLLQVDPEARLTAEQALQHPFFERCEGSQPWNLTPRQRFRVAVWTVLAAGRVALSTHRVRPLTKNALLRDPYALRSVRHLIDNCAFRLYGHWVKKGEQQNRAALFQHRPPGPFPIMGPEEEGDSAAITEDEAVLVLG
Text: as §1

## COc1cc(C(=O)N2CCC(N3CCN(C)CC3)CC2)ccc1Nc1ncc2c(n1)N(C)c1ccccc1C(=O)N2C [15 (LRRK2-IN-1)]
[1]
  KINOMEscan: PLK4: 0
[2]
  KINOMEscan: PHKG2: 33

## COc1cc(C(=O)N2CCC(N3CCN(C)CC3)CC2)ccc1Nc1ncc2c(n1)N1CCc3cccc(c31)C(=O)N2C [Compound 24]
[1]
  KINOMEscan: PLK4: 0.3
[2]
  KINOMEscan: PHKG2: 47

## COc1cc(C(=O)N2CCC(N3CCN(C)CC3)CC2)ccc1Nc1ncc2c(n1)N(C1CCCC1)c1ccccc1C(=O)N2C [Compound 25, 11-cyclopentyl-2-((2-methoxy-4-(4-(4-methylpiperazin-1-yl)piperidine-1-carbonyl)phenyl)amino)-5-methyl-5H-benzo[e]pyrimido[5,4-b][1,4]diazepin-6(11H)-one]
[1]
  KINOMEscan: PLK4: 0.25
[2]
  KINOMEscan: PHKG2: 68

## CCOc1cc(C(=O)N2CCC(N3CCN(C)CC3)CC2)ccc1Nc1ncc2c(n1)N(C1CCCC1)c1ccccc1C(=O)N2C [Compound 26]
[1]
  KINOMEscan: PLK4: 5.1
[2]
  KINOMEscan: PHKG2: 90
